From patent US20240336654A1, “ANTIMICROBIAL PEPTIDOMIMETICS” (SPEXIS AG, priority 2021, published 2024)
Where a SMILES comes first, the peptide text is derived from it. Bridges are numbered along the chain shown (N, C = ends). [ ]: non-standard residue; d: D form. The star is where a group is joined. Val(Nα-amidino) = CC(C)[C@H](NC(=N)N)C(=O)*; Hyp = O=C(O)[C@@H]1C[C@@H](O)CN1; Cit = NC(=O)NCCC[C@H](N)C(=O)O; Pen = CC(C)(S)[C@H](N)C(=O)O; dDab = NCC[C@@H](N)C(=O)O; Orn = NCCC[C@H](N)C(=O)O; Dab = NCC[C@H](N)C(=O)O

Experiments:
Assay type in all cases: cell-based
[1] = tested on: Escherichia coli ATCC 25922; conditions: ATCC 25922
In short: (§1)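 MICs were determined by CLSI broth microdilution in cation-adjusted Mueller-Hinton II broth with about 5×10^5 CFU/mL inoculum. Peptides were tested in two-fold serial dilutions with 0.002% polysorbate 80 final. MIC in μg/mL is the lowest concentration with no visible growth after 18-20 h at 35 °C.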

[2] = tested on: Escherichia coli MCR-1 Af 45; conditions: MCR-1 Af 45
In short: as §1

[3] = tested on: Klebsiella pneumoniae SSI3010; conditions: SSI3010
In short: as §1

[4] = tested on: human red blood cells (hRBC); conditions: red cells of human, 1 h, 200 μg/mL
In short: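 Peptides at 200 μg/mL incubated 1 h at 37 °C with 20% (v/v) washed human RBC, shaking. Hemolysis from supernatant OD540, expressed as percent of 2.5% Triton X-100 lysis, with PBS as 0%.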

| SMILES | Escherichia coli ATCC 25922 MIC [1] [µg/mL] | Escherichia coli MCR-1 Af45 MIC [2] [µg/mL] | Klebsiella pneumoniae SSI3010 MIC [3] [µg/mL] | Hemolysis at 0.2 g/L [4] [%] |
| --- | --- | --- | --- | --- |
| CC[C@H](C)[C@H](NC(=O)[C@@H]1C[C@@H](O)CN1C(=O)[C@@H](NC(=N)N)C(C)C)C(=O)N[C@@H]1C(=O)N[C@@H](Cc2ccc(O)cc2)C(=O)N[C@@H]([C@@H](C)O)C(=O)N[C@@H](CC(N)=O)C(=O)N[C@@H](CCCNC(=N)N)C(=O)N[C@@H](CCN)C(=O)N[C@@H]([C@@H](C)O)C(=O)N[C@H](CCN)C(=O)N[C@@H](CCCNC(N)=O)C(=O)N[C@@H](CCN)C(=O)N[C@@H](CCN)C(=O)N[C@H](C(=O)N[C@@H](Cc2ccc(O)cc2)C(=O)O)CSSC1(C)C [Example 97, Gua-Val-Hyp-Ile-Pen-Tyr-Thr-Asn-Arg-Dab-Thr-^DDab-Cit-Dab-Dab-Cys-Tyr] ({Val(Nα-amidino)}-[Hyp]I[Pen]YTNR[Dab]T[dDab][Cit][Dab][Dab]CY-OH; disulfide 3-14) | 0.125 | 0.125 | 0.25 | <1 |
| CC[C@H](C)[C@H](NC(=O)[C@@H]1C[C@@H](O)CN1C(=O)[C@@H](NC(=N)N)C(C)C)C(=O)N[C@@H]1C(=O)N[C@@H](Cc2ccc(O)cc2)C(=O)N[C@@H]([C@@H](C)O)C(=O)N[C@@H](CC(N)=O)C(=O)N[C@@H](CCCNC(=N)N)C(=O)N[C@@H](CCN)C(=O)N[C@@H]([C@@H](C)O)C(=O)N[C@H](CCN)C(=O)N[C@@H](CCCCN)C(=O)N[C@@H](CCN)C(=O)N[C@@H](CCCNC(N)=O)C(=O)N[C@H](C(=O)N[C@@H](Cc2ccc(O)cc2)C(=O)O)CSSC1(C)C [Example 98, Gua-Val-Hyp-Ile-Pen-Tyr-Thr-Asn-Arg-Dab-Thr-^DDab-Lys-Dab-Cit-Cys-Tyr] ({Val(Nα-amidino)}-[Hyp]I[Pen]YTNR[Dab]T[dDab]K[Dab][Cit]CY-OH; disulfide 3-14) | 0.25 | 0.125 | 0.5 | <1 |
| CC[C@H](C)[C@H](NC(=O)[C@@H]1C[C@@H](O)CN1C(=O)[C@@H](NC(=N)N)C(C)C)C(=O)N[C@@H]1C(=O)N[C@@H](Cc2ccc(O)cc2)C(=O)N[C@@H](CO)C(=O)N[C@@H](CC(N)=O)C(=O)N[C@@H](CCCNC(=N)N)C(=O)N[C@@H](CCN)C(=O)N[C@@H]([C@@H](C)O)C(=O)N[C@H](CCN)C(=O)N[C@@H](CO)C(=O)N[C@@H](CCN)C(=O)N[C@@H](CCN)C(=O)N[C@H](C(=O)N[C@@H](Cc2ccc(O)cc2)C(=O)O)CSSC1(C)C [Example 99, Gua-Val-Hyp-Ile-Pen-Tyr-Ser-Asn-Arg-Dab-Thr-^DDab-Ser-Dab-Dab-Cys-Tyr] ({Val(Nα-amidino)}-[Hyp]I[Pen]YSNR[Dab]T[dDab]S[Dab][Dab]CY-OH; disulfide 3-14) | 0.25 | 0.125 | 0.25 | <1 |
| CC[C@H](C)[C@H](NC(=O)[C@@H]1C[C@@H](O)CN1C(=O)[C@@H](NC(=N)N)C(C)C)C(=O)N[C@@H]1C(=O)N[C@@H](Cc2ccc(O)cc2)C(=O)N[C@@H]([C@@H](C)O)C(=O)N[C@@H](CC(N)=O)C(=O)N[C@@H](CCCNC(=N)N)C(=O)N[C@@H](CCN)C(=O)N[C@@H]([C@@H](C)O)C(=O)N[C@H](CCN)C(=O)N[C@@H](CO)C(=O)N[C@@H](CCN)C(=O)N[C@@H](CCCN)C(=O)N[C@H](C(=O)N[C@@H](Cc2ccc(O)cc2)C(=O)O)CSSC1(C)C [Example 100, Gua-Val-Hyp-Ile-Pen-Tyr-Thr-Asn-Arg-Dab-Thr-^DDab-Ser-Dab-Orn-Cys-Tyr] ({Val(Nα-amidino)}-[Hyp]I[Pen]YTNR[Dab]T[dDab]S[Dab][Orn]CY-OH; disulfide 3-14) | 0.25 | 0.25 | 0.5 | <1 |
| CC[C@H](C)[C@H](NC(=O)[C@@H]1C[C@@H](O)CN1C(=O)[C@@H](NC(=N)N)C(C)C)C(=O)N[C@@H]1C(=O)N[C@@H](Cc2ccc(O)cc2)C(=O)N[C@@H](CCN)C(=O)N[C@@H](CC(N)=O)C(=O)N[C@@H](CCCNC(=N)N)C(=O)N[C@@H](CCN)C(=O)N[C@@H]([C@@H](C)O)C(=O)N[C@H](CCN)C(=O)N[C@@H](CCCCN)C(=O)N[C@@H]([C@@H](C)O)C(=O)N[C@@H](CCN)C(=O)N[C@H](C(=O)N[C@@H](Cc2ccc(O)cc2)C(=O)O)CSSC1(C)C [Example 101, Gua-Val-Hyp-Ile-Pen-Tyr-Dab-Asn-Arg-Dab-Thr-^DDab-Lys-Thr-Dab-Cys-Tyr] ({Val(Nα-amidino)}-[Hyp]I[Pen]Y[Dab]NR[Dab]T[dDab]KT[Dab]CY-OH; disulfide 3-14) | 0.125 | 0.125 | 0.5 | <1 |

The next lines start with results.

| Escherichia coli ATCC 25922 MIC [1] [µg/mL] | Escherichia coli MCR-1 Af45 MIC [2] [µg/mL] | Klebsiella pneumoniae SSI3010 MIC [3] [µg/mL] | SMILES | Hemolysis at 0.2 g/L [4] [%] |
| --- | --- | --- | --- | --- |
| 0.25 | 0.25 | 0.5 | CC[C@H](C)[C@H](NC(=O)[C@@H]1C[C@@H](O)CN1C(=O)[C@@H](NC(=N)N)C(C)C)C(=O)N[C@@H]1C(=O)N[C@@H](Cc2ccc(O)cc2)C(=O)N[C@@H](CCN)C(=O)N[C@@H](CC(N)=O)C(=O)N[C@@H](CCCNC(=N)N)C(=O)N[C@@H](CCN)C(=O)N[C@@H]([C@@H](C)O)C(=O)N[C@H](CCN)C(=O)N[C@@H](CO)C(=O)N[C@@H]([C@@H](C)O)C(=O)N[C@@H](CCN)C(=O)N[C@H](C(=O)N[C@@H](Cc2ccc(O)cc2)C(=O)O)CSSC1(C)C [Example 102, Gua-Val-Hyp-Ile-Pen-Tyr-Dab-Asn-Arg-Dab-Thr-^DDab-Ser-T-Dab-Cys-Tyr] ({Val(Nα-amidino)}-[Hyp]I[Pen]Y[Dab]NR[Dab]T[dDab]ST[Dab]CY-OH; disulfide 3-14) | <1 |
| 0.125 | 0.125 | 0.25 | CC[C@H](C)[C@H](NC(=O)[C@@H]1C[C@@H](O)CN1C(=O)[C@@H](NC(=N)N)C(C)C)C(=O)N[C@@H]1C(=O)N[C@@H](Cc2ccc(O)cc2)C(=O)N[C@@H]([C@@H](C)O)C(=O)N[C@@H](CC(N)=O)C(=O)N[C@@H](CCCNC(=N)N)C(=O)N[C@H](CCN)C(=O)N[C@@H]([C@@H](C)O)C(=O)N[C@H](CCN)C(=O)N[C@@H](CO)C(=O)N[C@@H](CCN)C(=O)N[C@@H](CCN)C(=O)N[C@H](C(=O)N[C@@H](Cc2ccc(O)cc2)C(=O)O)CSSC1(C)C [Example 103, Gua-Val-Hyp-Ile-Pen-Tyr-Thr-Asn-Arg-^DDab-Thr-^DDab-Ser-Dab-Dab-Cys-Tyr] ({Val(Nα-amidino)}-[Hyp]I[Pen]YTNR[dDab]T[dDab]S[Dab][Dab]CY-OH; disulfide 3-14) | <1 |
| 0.25 | 0.25 | 0.25 | CC[C@H](C)[C@H](NC(=O)[C@@H]1C[C@@H](O)CN1C(=O)[C@@H](NC(=N)N)C(C)C)C(=O)N[C@@H]1C(=O)N[C@@H](Cc2ccc(O)cc2)C(=O)N[C@@H](CO)C(=O)N[C@@H](CC(N)=O)C(=O)N[C@@H](CCCNC(=N)N)C(=O)N[C@H](CCN)C(=O)N[C@@H]([C@@H](C)O)C(=O)N[C@H](CCN)C(=O)N[C@@H](CO)C(=O)N[C@@H](CCN)C(=O)N[C@@H](CCN)C(=O)N[C@H](C(=O)N[C@@H](Cc2ccc(O)cc2)C(=O)O)CSSC1(C)C [Example 104, Gua-Val-Hyp-Ile-Pen-Tyr-Ser-Asn-Arg-^DDab-Thr-^DDab-Ser-Dab-Dab-Cys-Tyr] ({Val(Nα-amidino)}-[Hyp]I[Pen]YSNR[dDab]T[dDab]S[Dab][Dab]CY-OH; disulfide 3-14) | <1 |
| 0.125 | 0.125 | 0.25 | CC[C@H](C)[C@H](NC(=O)[C@@H]1C[C@@H](O)CN1C(=O)[C@@H](NC(=N)N)C(C)C)C(=O)N[C@@H]1C(=O)N[C@@H](Cc2ccc(O)cc2)C(=O)N[C@@H]([C@@H](C)O)C(=O)N[C@@H](CC(N)=O)C(=O)N[C@@H](CCCNC(=N)N)C(=O)N[C@@H](CCN)C(=O)N[C@@H]([C@@H](C)O)C(=O)N[C@H](CCN)C(=O)N[C@@H](CC(N)=O)C(=O)N[C@@H](CCN)C(=O)N[C@@H](CCN)C(=O)N[C@H](C(=O)N[C@@H](Cc2ccc(O)cc2)C(=O)O)CSSC1(C)C [Example 105, Gua-Val-Hyp-Ile-Pen-Tyr-Thr-Asn-Arg-Dab-Thr-^DDab-Asn-Dab-Dab-Cys-Tyr] ({Val(Nα-amidino)}-[Hyp]I[Pen]YTNR[Dab]T[dDab]N[Dab][Dab]CY-OH; disulfide 3-14) | <1 |
| 0.125 | 0.125 | 0.25 | CC[C@H](C)[C@H](NC(=O)[C@@H]1C[C@@H](O)CN1C(=O)[C@@H](NC(=N)N)C(C)C)C(=O)N[C@@H]1C(=O)N[C@@H](Cc2ccc(O)cc2)C(=O)N[C@@H](CO)C(=O)N[C@@H](CC(N)=O)C(=O)N[C@@H](CCCNC(=N)N)C(=O)N[C@@H](CCN)C(=O)N[C@@H]([C@@H](C)O)C(=O)N[C@H](CCN)C(=O)N[C@@H](CCCNC(N)=O)C(=O)N[C@@H](CCN)C(=O)N[C@@H](CCN)C(=O)N[C@H](C(=O)N[C@@H](Cc2ccc(O)cc2)C(=O)O)CSSC1(C)C [Example 106, Gua-Val-Hyp-Ile-Pen-Tyr-Ser-Asn-Arg-Dab-Thr-^DDab-Cit-Dab-Dab-Cys-Tyr] ({Val(Nα-amidino)}-[Hyp]I[Pen]YSNR[Dab]T[dDab][Cit][Dab][Dab]CY-OH; disulfide 3-14) | <1 |
